Test results: patent US12391643B2, “Substituted amino-thiol and amino-disulfide compounds, and uses thereof” (The Regents of the University of California, priority 2019, dated 2025)
“Also recorded” adds a separate entry of the source. Where a name gives a salt, the structure may show the parent alone.

Key:
[1] = test system: Pooled human hepatocytes; assay: Hepatocyte elimination (in vitro metabolic stability, percent parent remaining by LC/MS/MS); assay type: in vitro ADME; details: for Rate of hepatocyte elimination / stability, comparison in words: compared with other forms
Description: In vitro experiments with isotopically enriched cystamine and cysteamine in hepatocytes.
The assessment of in vitro metabolic stability provides a means to measure the susceptibility of a test compound to biotransformation by the liver. While liver microsomes primarily assess cytochrome P450 system-mediated metabolism (phase I metabolism), hepatocytes represent a complete, undisrupted metabolic system, including cofactors, and thus assess both phase I and phase II metabolism. In all cases, the metabolic stability of test compounds was determined by monitoring, via LC/MS/MS, the percent parent compound remaining versus time of incubation in human hepatocytes.
Pooled human hepatocytes (catalog number HMCS10, ThermoFischer Scientific) were thawed according to the manufacturers instructions. Thawed hepatocytes were washed by centrifugation and replated in Williams' Medium E supplemented with Heptocyte Plating Supplement Pack, Serum-containing.
Cells were diluted to 1,000,000 per ml in maintenance media (Williams' E Media supplemented with Hepatocyte Maintenance Supplement Pack, Serum-free). 500 μl of cell suspension was added to each well of a microtiter plate containing 500 μl of the deuterated test agent and placed on an orbital shaker at 120 rpm at 37 C. At the appropriate time point 50 μl aliquots were removed from the well and added to 50 μl of ice cold ethyl acetate and vortexed for 5 min and froze until chromatography analysis.

[2] = test system: cystinotic fibroblasts; assay: Intracellular NEM-cysteamine, NEM-cysteine, cystamine and mixed disulfide levels in cystinotic fibroblasts; assay type: cell-based, human; details: cystamine 50, 100, 200 μM compared with cysteamine 200 μM (FIG. 2)
[3] = test system: cystinotic fibroblasts; assay: as above; assay type: cell-based, human; details: for NEM-cysteamine level during constant incubation: 100 uM drug, early timepoints, normalized against d4-cystine; for Intracellular cystamine level during constant drug incubation: FIG. 10; for NEM-cysteine level after 3 h incubation and washout: washout period
Procedure: (§1) In vitro experiments with isotopically enriched cystamine in cystinotic fibroblasts. Fibroblasts from a de-identified cystinotic patient were split 3× from 2 plates into 36 plates. Three different drugs were used for the experiments: cystamine (non-labeled), d2-cystamine, and d4-cystamine. There were two time series for each drug. The first was with constant drug incubation and included: 0, 10 min, 30 min, 1 h, 3 h, and 5 h. The other series included a washout after 3 h drug incubation, using fresh media following a PBS wash, and included the timepoints: 0, 30 min, 1 h, 3 h, 5 h, and 17 h. A direct quench and extraction technique were used for harvesting all cells to minimize further oxidation and metabolism. This included 2× washes with PBS that included 5 mM N-ethylmaleimide for trapping free thiol groups, and then scraping the plates with an acidified organic solvent extraction solution containing both d4-cystine and d4-cysteamine (plus d-8 cystamine) as internal standards. All samples were run on an API 4500 triple quadrupole LC-MS/MS, with selective reaction monitoring (SRM/MRM) for the following compounds of interest: cystine, NEM-cysteamine, NEM-cysteine, cystamine, and 2-(methylthio)ethylamine. All data fit well to single exponential curves (either decay or association), except where mentioned.
NEM-cysteamine and NEM-cysteine during constant incubation. Fibroblast cultures were exposed to drug (either cystamine, d2-cystamine, or d4-cystamine) and harvested as described on page 2 for the cystine depletion curve. NEM-cysteamine (or NEM-d1-cysteamine or NEM-d2-cysteamine) was measured for each respective plate and normalized against the signal for d4-cystine.
NEM-cysteamine during washout. Fibroblast cultures were exposed to drug (either cystamine, d2-cystamine, or d4-cystamine) for 3 h were then exposed to media for various timepoints and harvested as previously described.
NEM-cysteine during washout. Fibroblast cultures were exposed to drug (either cystamine, d2-cystamine, or d4-cystamine) for 3 h were then exposed to media for various timepoints and harvested as previously described.
Cystamine during constant drug incubation. Fibroblast cultures were exposed to drug (either cystamine, d2-cystamine, or d4-cystamine) for various timepoints following harvesting as described earlier. Cystamine could be measured in the non-labeled cystamine incubation as well as the d4-cystamine incubation. d2-cystamine could not be accurately measured due to a strong background interference signal corresponding to that mass. No cystamine could be measured in the washout experiments.

[4] = test system: cystinotic fibroblasts; assay: Cystine depletion during constant drug exposure in cystinotic fibroblasts; assay type: cell-based, human; details: for Reduction of intracellular cystine levels: cystamine 50, 100, 200 μM, cysteamine 200 μM (FIG. 1); for Rate of intracellular cystine depletion, comparison in words: 100 uM constant exposure, 0-5 h, vs cystamine
Procedure: as §1
Following incubation, cells were washed 2× in PBS containing N-ethylmaleimide.
(§2) Fibroblasts from a de-identified cystinotic patient were split 3× from 2 plates into 18 plates. Two different drugs were used for the experiments: D4n-cystamine, and D8-cystamine. There were two time series for each drug. The first was with constant drug incubation and included: 0, 15 min, 30 min, 1 hr, and 3 hr. The other series included a washout after 3 hours of drug incubation, using fresh media following a PBS wash, and included the time-points: 0, 1 hr, 3 hr, and 16 hr. A direct quench and extraction technique was used for harvesting all cells to minimize further oxidation and metabolism. […] All samples were run on an API 4500 triple quadruple LC-MS/MS, with selective reaction monitoring (SRM/MRM) for the following compounds of interest: cystine, NEM-cysteamine, NEM-cysteine, and cystamine. All data fit well to single exponential curves (either decay or association), except where mentioned.

[5] = test system: cystinotic fibroblasts; assay: Cystine re-accumulation after washout in cystinotic fibroblasts; assay type: cell-based, human; details: for Cystine reaccumulation after washout, D4n vs D8: 50 μM for 3 hours, then media 1 h, 3 h, 16 h
Procedure: as §1
Cystine measurement after washout: Fibroblast cultures were exposed to 100 uM cystamine/d2-cystamine/d4-cystamine for 3 h. Following incubation, cells were washed with PBS, and then incubated with regular media (containing FBS) for the following timepoints: 0 min, 30 min, 1 h, 3 h, 5 h, and 17 h. Cells were harvested identically as described previously.
as §2
Fibroblast cultures were exposed to 50 μM cystamine (D8 or D4n) for 3 hours. Following incubation, cells were washed with PBS and then incubated with regular mediate containing FBS for 1 h, 3 h, and 16 h. Cells were harvested as above. […] Cystine reaccumulation between D4n-cystamine and D8-cystamine are very similar, indicating similar levels of drug remaining during the washout timepoints (FIG. 15).

[6] = test system: intracellular cystine (circulating white blood cells); details: taken regularly; measured in circulating white blood cells; cited from earlier work
[7] = test system: C57BL/6 male mice on CDAHFD diet; assay: In vivo NASH model, treatment phase (8 weeks CDAHFD, then 2 weeks daily gavage); details: for Fatty deposits / fat globules in liver, H&E staining: 200 mg/kg/day
Procedure: Liver Inflammatory Cells. CD11b stains macrophages and microglia. CD11b staining of liver tissue was taken after 10 weeks of CDAHFD in three groups of mice. […] At 8 weeks, treatment group 2 (“C2”) mice started gavage feeding with D2-Cystamine at 200 mg/kg/day once daily gavage, and treatment group 3 (“C3”) mice received D4-Cystamine at 200 mg/kg/day by once daily gavage.
(§3) In vivo NASH Models. NASH models from normal C57BL/6 male mice on CDAHFD diet (choline deficient, L-amino acid defined, high fat diet with restricted amount of methionine) were used. Two deuterated cystamine molecules were tested:
(§4) Two phase study was performed: (1) A prevention and (2) a treatment phase. 48 Mice were separated into nine groups of mice as described below. Histology at end of each study was performed looking for specific features of NASH (steatohepatitis, ballooning, fibrosis). The primary endpoint was plasma ALT measurement. Gene expression studies for fibrosis, inflammation were also performed.
(§5) Prevention Phase. Group 1: Control mice on CDAHFD for 8 weeks. Blood drawn at 0, 4, and 8 weeks. Group 2: Mice on CDAHFD plus D2 at 200 mg/kg/day for 8 weeks. Blood drawn at 0, 4, and 8 weeks. Group 3: Mice on CDAHFD plus D4 at 200 mg/kg/day for 8 weeks. Blood drawn at 0, 4, and 8 weeks. Group 4: Control mice (n=4) continue on CDAHFD for 2 weeks. Blood at baseline and at 2 weeks. Liver histology at 2 weeks. Group 5: Mice (n=4) on CDAHFD for 2 weeks plus D2 at 200 mg/kg/day administered via daily gavage. Blood at 0 and 2 weeks and histology at 2 weeks. Group 6: Mice (n=4) on CDAHFD for 2 weeks plus D4 at 200 mg/kg/day administered via daily gavage. Blood at 0 and 2 weeks and histology at 2 weeks.
Treatment Study Results. Groups 4, 5 and 6 mice received 8 weeks of CDAHDF diet before beginning treatment with deuterated compounds of the disclosure. During the treatment phase the mice continued to receive CDAHDF diet. Four mice were set in each group: control (C1) not receiving any drug; treatment (C2) receiving 200 mg/kg of cystamine D2 by once daily gavage; and treatment (C3) receiving 200 mg/kg cystamine D4 by once daily gavage.

[8] = test system: C57BL/6 male mice on CDAHFD diet; assay: In vivo NASH model, prevention phase (drug in drinking water, 8 weeks); details: about 200 mg/kg/day in drinking water, n=8 per group
Procedure: as §3, §4
Drug (D2 or D4) was administered in drinking water at a concentration to deliver animals about 200 mg/kg/day of drug. Daily weight. Volume of fluid drunk/day was also measured.
as §5, with “Group 6: Mice (n=4) on CDAHFD for 2 weeks plus D4 at 200 mg/kg/day administered via daily gavage. Blood at 0 and 2 weeks and histology at 2 weeks.” left out

[9] = test system: steatosis; details: 400-1000 IU/day for 4-10 months, cited from earlier work

With “2-aminoethane-1-d-1-thiol hydrochloride [D-cysteamine]” the “Rate of hepatocyte elimination / stability, comparison in words” value [1] was “slower rate than cysteamine bitartrate”.

For `NCCSSCCN` [Cystamine], the “Conversion of intracellular cystine to mixed disulfide (MD) of cysteine-cysteamine” value [2] was “delayed”, the “NEM-cysteamine level during constant incubation” value [3] was “faster/higher; also recorded: Higher levels of cysteamine” and the “NEM-cysteamine level during constant incubation” value ([3]; listed as non-labeled cystamine) was “highest”. The “Intracellular cystamine level during constant drug incubation” value [3] was “deplete rapidly”, the “Intracellular cystamine level during constant drug incubation” value ([3]; listed as cystamine) was “depletes rapidly” and the “NEM-cysteine level after 3 h incubation and washout” value (“NEM-cysteine level” for short) [3] was “rise and increase”. The “Hepatocyte elimination, % remaining” value ([1]; TIME 0 min) was 100%, the “Hepatocyte elimination, % remaining” value ([1]; TIME 15 min) was 18.5% and the “Hepatocyte elimination, % remaining” value ([1]; TIME 30 min) was 6.5%. For the same compound, the “Reduction of intracellular cystine levels” value [4] was “effective in reducing intracellular cystine levels in a dose-response fashion” and the “Cystine level 17 h after washout versus plates not exposed to cystamine” value ([5]; 3 h incubation with 100 μM cystamine, then cystamine-free media) was “identical to the 17 h cystine measurement”.

With `NCCS.O=C(O)C(O)C(O)C(=O)O` (stereo not shown) [Cysteamine Bitartrate, reference compound] the “Hepatocyte elimination, % remaining” value ([1]; TIME 0 min) was 100%, the “Hepatocyte elimination, % remaining” value ([1]; TIME 15 min) was 15.4% and the “Hepatocyte elimination, % remaining” value ([1]; TIME 30 min) was 2.7%. For the same compound, the “Hepatocyte elimination, % remaining” value ([1]; TIME 60 min) was 1.2%.

For `NCCS` [Cysteamine, reference compound], the “Depletion of intracellular cystine” value [6] is listed as “up to 90%” and the “Reduction of intracellular cystine levels” value [4] is listed as “effective and more rapid in its response time”.

With `[2H]C(CN)SSC([2H])CN` (stereo not drawn) [D2-Cystamine, 2,2′-disulfanediylbis(ethan-2-d-1-amine)dihydrochloride] the “NEM-cysteine level” value [3] was “rise and increase”, the “NEM-cysteine level” value ([3]; listed as D2) was “higher cysteine levels” and the “Rate of hepatocyte elimination / stability, comparison in words” value [1] was “slower than non-deuterated cystamine”. The “ALT versus untreated control group” value ([7]; 200 mg/kg once daily gavage, 2 weeks) was “significantly lower”, the “Hepatic fibrosis, Sirius Red staining of liver sections” value ([7]; 200 mg/kg once daily gavage, 2 weeks, listed as D2) was “significant reduction in the amount of positive liver staining” and the “Hepatic fibrosis, Sirius Red staining of liver sections” value ([7]; 200 mg/kg once daily gavage, 2 weeks, listed as cystamine D2) was “very significant reduction in hepatic fibrosis”. For the same compound, the “Number of CD11b positive cells in liver tissue versus control group” value ([7]; 200 mg/kg/day once daily gavage, 2 weeks) was “statistically significant reduction”, the “Fatty deposits / fat globules in liver, H&E staining” value ([7]; 2 weeks) was “reduction in fatty globules” and the “Fatty deposits / fat globules in liver, H&E staining” value ([7]; 2 weeks, listed as D2) was “reduced fatty deposits compared to control”. The “TIMP expression, qPCR, versus control” value ([7]; liver, 2 weeks of treatment) was “significant reduction”, the “Rate of intracellular cystine depletion, comparison in words” value (“Rate of intracellular cystine depletion” for short) ([4]; listed as D2-cystamine) was “slightly slower kinetics” and the “Rate of intracellular cystine depletion” value ([4]; listed as d2-Cystamine) was “slightly slower kinetics”. The “Rate of intracellular cystine depletion” value ([4]; listed as d2-cystamine) was “slower”, the “Cystine re-accumulation after washout, comparison in words” value ([5]; 100 uM for 3 h, then drug-free media up to 17 h, vs cystamine) was “slightly faster” and the “ALT levels at 8 weeks versus control group” value [8] was “statistically significant difference”.

For `Cl.[2H]C([2H])(S)CN` [D2-cysteamine, 2-mercaptoethan-2,2-d2-1-aminium chloride], the “Rate of hepatocyte elimination / stability, comparison in words” value [1] was “slower rate than cysteamine bitartrate”.

For `[2H]C([2H])(N)CSSCC([2H])([2H])N` [D4n-cystamine, 2,2′-disulfanediylbis(ethan-1,1-d2-1-aminium) chloride], the “Cystine reaccumulation after washout, D4n vs D8” value [5] was “very similar”.

In the case of `[2H]C([2H])(N)C([2H])([2H])SSC([2H])([2H])C([2H])([2H])N` [D8-cystamine], the “Cystine reaccumulation after washout, D4n vs D8” value [5] was “very similar”.

In the case of `[2H]C(CN)SSC([2H])CN` (stereo not shown) [drawing 24], the “Hepatocyte elimination, % remaining” value ([1]; TIME 0 min) was 100%, the “Hepatocyte elimination, % remaining” value ([1]; TIME 15 min) was 22.6% and the “Hepatocyte elimination, % remaining” value ([1]; TIME 30 min) was 24.3%. The “Hepatocyte elimination, % remaining” value ([1]; TIME 60 min) was 0%.

In the case of `[2H]C([2H])(CN)SSC([2H])([2H])CN` [drawing 25], the “Hepatocyte elimination, % remaining” value ([1]; TIME 0 min) was 100%, the “Hepatocyte elimination, % remaining” value ([1]; TIME 15 min) was 131.4% and the “Hepatocyte elimination, % remaining” value ([1]; TIME 30 min) was 35.9%. For the same compound, the “Hepatocyte elimination, % remaining” value ([1]; TIME 60 min) was 14.5%.

In the case of vitamin E, the “Mean AST level after treatment” value ([9]; decreased from 104±61 IU/L) is listed as 33±11 IU/L and the “Mean ALT level after treatment” value ([9]; decreased from 175±106 IU/L) is listed as 40±26 IU/L.
